Test results: PubChem BioAssay (NCI)
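Compound exposure: 48 hours, 5 concentrations, 96-well plates. The concentration for full growth arrest is given as TGI.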

Assays:
Assay in all cases: inhibition of tumour cell growth, NCI panel, 48 h
OVCAR-5 ovarian = tested on: OVCAR-5 ovarian
SNB-19 CNS = tested on: SNB-19 CNS
K-562 leukemia = tested on: K-562 leukemia
HOP-92 NSCLC = tested on: HOP-92 NSCLC
SK-MEL-2 melanoma = tested on: SK-MEL-2 melanoma
HCT-15 colon = tested on: HCT-15 colon
NCI/ADR-RES ovarian = tested on: NCI/ADR-RES ovarian
COLO 205 colon = tested on: COLO 205 colon
BT-549 breast = tested on: BT-549 breast
LOX IMVI melanoma = tested on: LOX IMVI melanoma
UO-31 renal = tested on: UO-31 renal
EKVX NSCLC = tested on: EKVX NSCLC
SK-OV-3 ovarian = tested on: SK-OV-3 ovarian
OVCAR-4 ovarian = tested on: OVCAR-4 ovarian
SW-620 colon = tested on: SW-620 colon
IGROV1 ovarian = tested on: IGROV1 ovarian
SF-295 CNS = tested on: SF-295 CNS
HL-60(TB) leukemia = tested on: HL-60(TB) leukemia
ACHN renal = tested on: ACHN renal
HT29 colon = tested on: HT29 colon
KM12 colon = tested on: KM12 colon
NCI-H522 lung = tested on: NCI-H522 lung
MALME-3M melanoma = tested on: MALME-3M melanoma
SF-539 CNS = tested on: SF-539 CNS
M14 melanoma = tested on: M14 melanoma
RXF 393 renal = tested on: RXF 393 renal
OVCAR-8 ovarian = tested on: OVCAR-8 ovarian
SNB-75 CNS = tested on: SNB-75 CNS
A549 NSCLC = tested on: A549 NSCLC
786-0 renal = tested on: 786-0 renal
CCRF-CEM leukemia = tested on: CCRF-CEM leukemia
PC-3 prostate = tested on: PC-3 prostate
T-47D breast = tested on: T-47D breast
NCI-H226 lung = tested on: NCI-H226 lung
MDA-MB-435 = tested on: MDA-MB-435
A498 renal = tested on: A498 renal
HCC-2998 colon = tested on: HCC-2998 colon
NCI-H23 lung = tested on: NCI-H23 lung
DU-145 prostate = tested on: DU-145 prostate
OVCAR-3 ovarian = tested on: OVCAR-3 ovarian
NCI-H460 lung = tested on: NCI-H460 lung
RPMI-8226 leukemia = tested on: RPMI-8226 leukemia
MOLT-4 leukemia = tested on: MOLT-4 leukemia
SF-268 CNS = tested on: SF-268 CNS
CAKI-1 renal = tested on: CAKI-1 renal
SK-MEL-28 melanoma = tested on: SK-MEL-28 melanoma
SK-MEL-5 melanoma = tested on: SK-MEL-5 melanoma
UACC-257 melanoma = tested on: UACC-257 melanoma
HCT-116 colon = tested on: HCT-116 colon
MDA-N = tested on: MDA-N
HOP-62 NSCLC = tested on: HOP-62 NSCLC
TK-10 renal = tested on: TK-10 renal
U251 CNS = tested on: U251 CNS
SR leukemia = tested on: SR leukemia
MDA-MB-231 breast = tested on: MDA-MB-231 breast
HS 578T breast = tested on: HS 578T breast
SN12C renal = tested on: SN12C renal
UACC-62 melanoma = tested on: UACC-62 melanoma
MCF7 breast = tested on: MCF7 breast

Work on CC(=O)Oc1ccc(/C=C/C(=O)OCCOC(=O)/C=C/c2ccc(OC(C)=O)c(OC(C)=O)c2)cc1OC(C)=O yielded a TGI (OVCAR-5 ovarian) of over 60.1 µM, a TGI (SNB-19 CNS) of over 77.9 µM and a TGI (K-562 leukemia) of over 100 µM. The TGI (HOP-92 NSCLC) was 26.7 µM, the TGI (SK-MEL-2 melanoma) was 55.6 µM and the TGI (HCT-15 colon) was 33.8 µM. It also gave a TGI (NCI/ADR-RES ovarian) of 16.3 µM, a TGI (COLO 205 colon) of 28.2 µM and a TGI (BT-549 breast) of 53 µM. For the same molecule, the TGI (LOX IMVI melanoma) was 16.3 µM, the TGI (UO-31 renal) was 15.3 µM and the TGI (EKVX NSCLC) was 45 µM. It also gave a TGI (SK-OV-3 ovarian) of 35 µM, a TGI (OVCAR-4 ovarian) of 28.4 µM and a TGI (SW-620 colon) of 49 µM. For the same molecule, the TGI (IGROV1 ovarian) was 10.7 µM, the TGI (SF-295 CNS) was 25.4 µM and the TGI (HL-60(TB) leukemia) was over 44.6 µM. For the same molecule, the TGI (ACHN renal) was 35.8 µM, the TGI (HT29 colon) was over 56.7 µM and the TGI (KM12 colon) was 22.1 µM. It also gave a TGI (NCI-H522 lung) of 17 µM, a TGI (MALME-3M melanoma) of 30.1 µM and a TGI (SF-539 CNS) of 13.4 µM. For the same molecule, the TGI (M14 melanoma) was 25.3 µM, the TGI (RXF 393 renal) was 21.3 µM and the TGI (OVCAR-8 ovarian) was 35 µM. For the same molecule, the TGI (SNB-75 CNS) was 22.5 µM, the TGI (A549 NSCLC) was 50.3 µM and the TGI (786-0 renal) was 22.3 µM. For the same molecule, the TGI (CCRF-CEM leukemia) was 6.12 µM, the TGI (PC-3 prostate) was 58.8 µM and the TGI (T-47D breast) was 43 µM. It also gave a TGI (NCI-H226 lung) of 41.5 µM, a TGI (MDA-MB-435) of 28 µM and a TGI (A498 renal) of 52.5 µM. The TGI (HCC-2998 colon) was 28.6 µM, the TGI (NCI-H23 lung) was 18.7 µM and the TGI (DU-145 prostate) was 28.6 µM. The TGI (OVCAR-3 ovarian) was over 28.6 µM, the TGI (NCI-H460 lung) was 32 µM and the TGI (RPMI-8226 leukemia) was 24.5 µM. The TGI (MOLT-4 leukemia) was over 38.5 µM, the TGI (SF-268 CNS) was 56.5 µM and the TGI (CAKI-1 renal) was 11.6 µM. For the same molecule, the TGI (SK-MEL-28 melanoma) was 29.4 µM, the TGI (SK-MEL-5 melanoma) was 20.1 µM and the TGI (UACC-257 melanoma) was 22.6 µM. For the same molecule, the TGI (HCT-116 colon) was 20.9 µM, the TGI (MDA-N) was 23.5 µM and the TGI (HOP-62 NSCLC) was 5.23 µM. For the same molecule, the TGI (TK-10 renal) was 37.2 µM, the TGI (U251 CNS) was 22.1 µM and the TGI (SR leukemia) was 20.7 µM. It also gave a TGI (MDA-MB-231 breast) of 52.4 µM, a TGI (HS 578T breast) of 62.7 µM and a TGI (SN12C renal) of 69 µM. For the same molecule, the TGI (UACC-62 melanoma) was 16.3 µM and the TGI (MCF7 breast) was 28.6 µM.

COC(=O)C1(C)CCCC2(C)c3cc(OC)ccc3C(=O)C(Br)C12 (stereo not drawn) was tested, and the TGI (OVCAR-5 ovarian) was over 10 µM, the TGI (SNB-19 CNS) was over 10 µM and the TGI (K-562 leukemia) was over 10 µM. For the same molecule, the TGI (HOP-92 NSCLC) was over 10 µM, the TGI (SK-MEL-2 melanoma) was over 10 µM and the TGI (HCT-15 colon) was over 10 µM. It also gave a TGI (NCI/ADR-RES ovarian) of over 10 µM, a TGI (COLO 205 colon) of 7.29 µM and a TGI (BT-549 breast) of over 10 µM. For the same molecule, the TGI (LOX IMVI melanoma) was over 10 µM, the TGI (UO-31 renal) was 3.28 µM and the TGI (EKVX NSCLC) was over 10 µM. The TGI (SK-OV-3 ovarian) was over 10 µM, the TGI (SW-620 colon) was 4.39 µM and the TGI (IGROV1 ovarian) was over 10 µM. It also gave a TGI (SF-295 CNS) of over 10 µM, a TGI (HL-60(TB) leukemia) of 4.2 µM and a TGI (HT29 colon) of over 10 µM. It also gave a TGI (KM12 colon) of over 10 µM, a TGI (NCI-H522 lung) of 5.25 µM and a TGI (MALME-3M melanoma) of 9.71 µM. The TGI (SF-539 CNS) was over 10 µM, the TGI (M14 melanoma) was over 10 µM and the TGI (RXF 393 renal) was over 10 µM. It also gave a TGI (OVCAR-8 ovarian) of 4.54 µM, a TGI (A549 NSCLC) of over 10 µM and a TGI (786-0 renal) of 4.21 µM. The TGI (CCRF-CEM leukemia) was 6.59 µM, the TGI (PC-3 prostate) was over 10 µM and the TGI (T-47D breast) was over 10 µM. It also gave a TGI (NCI-H226 lung) of over 10 µM, a TGI (MDA-MB-435) of over 10 µM and a TGI (A498 renal) of over 10 µM. It also gave a TGI (HCC-2998 colon) of over 10 µM, a TGI (NCI-H23 lung) of over 10 µM and a TGI (DU-145 prostate) of over 10 µM. For the same molecule, the TGI (OVCAR-3 ovarian) was over 10 µM, the TGI (NCI-H460 lung) was over 10 µM and the TGI (RPMI-8226 leukemia) was 6.53 µM. The TGI (MOLT-4 leukemia) was 4.17 µM, the TGI (SF-268 CNS) was over 10 µM and the TGI (CAKI-1 renal) was over 10 µM. The TGI (SK-MEL-28 melanoma) was over 10 µM, the TGI (SK-MEL-5 melanoma) was over 10 µM and the TGI (UACC-257 melanoma) was over 10 µM. It also gave a TGI (HCT-116 colon) of 7.23 µM, a TGI (MDA-N) of over 10 µM and a TGI (HOP-62 NSCLC) of over 10 µM. The TGI (TK-10 renal) was over 10 µM, the TGI (U251 CNS) was over 10 µM and the TGI (SR leukemia) was over 10 µM. It also gave a TGI (MDA-MB-231 breast) of over 10 µM, a TGI (HS 578T breast) of over 10 µM and a TGI (SN12C renal) of over 10 µM. The TGI (UACC-62 melanoma) was over 10 µM and the TGI (MCF7 breast) was over 10 µM.

Nc1nnc2oc3ccc4ccccc4c3cc1-2 gave a TGI (OVCAR-5 ovarian) of over 100 µM, a TGI (SNB-19 CNS) of over 100 µM and a TGI (K-562 leukemia) of over 100 µM. It also gave a TGI (HOP-92 NSCLC) of over 100 µM, a TGI (SK-MEL-2 melanoma) of 72.5 µM and a TGI (HCT-15 colon) of over 100 µM. It also gave a TGI (NCI/ADR-RES ovarian) of over 100 µM, a TGI (COLO 205 colon) of 56.8 µM and a TGI (BT-549 breast) of over 100 µM. The TGI (LOX IMVI melanoma) was over 100 µM, the TGI (UO-31 renal) was over 100 µM and the TGI (EKVX NSCLC) was over 100 µM. For the same molecule, the TGI (SK-OV-3 ovarian) was over 100 µM, the TGI (OVCAR-4 ovarian) was over 100 µM and the TGI (SW-620 colon) was over 100 µM. For the same molecule, the TGI (IGROV1 ovarian) was over 100 µM, the TGI (SF-295 CNS) was over 100 µM and the TGI (HL-60(TB) leukemia) was 67.9 µM. For the same molecule, the TGI (ACHN renal) was 80.1 µM, the TGI (HT29 colon) was over 100 µM and the TGI (KM12 colon) was over 100 µM. The TGI (NCI-H522 lung) was over 100 µM, the TGI (MALME-3M melanoma) was 89.8 µM and the TGI (M14 melanoma) was over 100 µM. It also gave a TGI (RXF 393 renal) of over 100 µM, a TGI (OVCAR-8 ovarian) of over 100 µM and a TGI (SNB-75 CNS) of 81 µM. For the same molecule, the TGI (A549 NSCLC) was over 100 µM, the TGI (786-0 renal) was over 100 µM and the TGI (CCRF-CEM leukemia) was over 100 µM. For the same molecule, the TGI (PC-3 prostate) was over 100 µM, the TGI (T-47D breast) was 65.4 µM and the TGI (NCI-H226 lung) was 80.7 µM. The TGI (MDA-MB-435) was over 100 µM, the TGI (A498 renal) was 71.8 µM and the TGI (HCC-2998 colon) was 77.4 µM. For the same molecule, the TGI (NCI-H23 lung) was over 100 µM, the TGI (DU-145 prostate) was over 100 µM and the TGI (OVCAR-3 ovarian) was over 100 µM. The TGI (NCI-H460 lung) was over 100 µM, the TGI (RPMI-8226 leukemia) was over 100 µM and the TGI (MOLT-4 leukemia) was over 100 µM. It also gave a TGI (SF-268 CNS) of over 100 µM, a TGI (CAKI-1 renal) of over 100 µM and a TGI (SK-MEL-28 melanoma) of over 100 µM. For the same molecule, the TGI (SK-MEL-5 melanoma) was over 100 µM, the TGI (UACC-257 melanoma) was over 100 µM and the TGI (HCT-116 colon) was over 100 µM. For the same molecule, the TGI (MDA-N) was over 100 µM, the TGI (HOP-62 NSCLC) was over 100 µM and the TGI (TK-10 renal) was over 100 µM. The TGI (U251 CNS) was over 100 µM, the TGI (SR leukemia) was 72.7 µM and the TGI (MDA-MB-231 breast) was 97.1 µM. The TGI (HS 578T breast) was over 100 µM, the TGI (SN12C renal) was 87 µM and the TGI (UACC-62 melanoma) was over 100 µM. For the same molecule, the TGI (MCF7 breast) was over 100 µM.
